{"source": "patent US12144299B2", "about": "“Mobilisation of transposable elements to enhance genetic and epigenetic variability in a population” (priority 2015, dated 2024)", "key": {"LINE-1 retrotransposon": {"tested_on": "LINE-1 retrotransposon", "experiment": "LINE-1 DNA methylation assay in A549 cells", "type": "cell-based, human", "conditions": "A 0.5 μg/ml, Z 350 μM", "description": "(§1) For the A549 human cancer cell line cells were grown in medium without treatment or supplemented with either Z (350 μM) or A (0.5 μg/ml), DNA was extracted by using the QiaAmp DNA mini Kit (Qiagen, France). Next, global DNA methylation was estimated by quantifying the presence of 5-methylcytosine 5-mC DNA ELISA Kit (Zymo Research) according to the manufacturers's instructions. DNA methylation at the LINE-1 transposons were assessed with the Global DNA Methylation Assay—LINE-1 kit (Active Motif)."}, "ONSEN retrotransposon": {"tested_on": "ONSEN retrotransposon", "experiment": "ONSEN extrachromosomal DNA accumulation by qPCR in seedlings after heat stress", "type": "in vivo, Arabidopsis thaliana", "conditions": "HS", "description": "After stratification for two days at 4° C., Arabidopsis thaliana plants (accession Col-0) were grown on sterile ½ MS medium with 1% sucrose and a pH of 5.8 (control medium) under long day conditions (16 h light) at 24° C. (day) and 22° C. (night), respectively. Oryza sativa plants were grown on sterile ½ MS medium with 1% sucrose and a pH of 5.8 (control medium) 16 h at 28° C. (day) and 27° C. (night), respectively.\nThe induction of epigenetic changes and the activation and stable integration of transposable elements in Arabidopsis seedlings was enhanced by germinating and growing them on ½ MS-medium that contained zebularine (final concentration: 10-40 μM), α-amanitin (final concentration: 0.005-20 μg/ml) or a combination of both chemicals (inductive media).\nIn order to trigger the transposition of the heat-responsive retrotransposon ONSEN, seven days old seedlings were exposed to a cold shock for 24 h at 6° C. followed by a heat-stress for 24 h at 37° C. (heat stress, HS) under controlled conditions in a growth chamber (Sanyo). Control plants were transferred back to longday-conditions 24° C. (day) and 22° C. (night) after the cold treatment at 6° C. for 24 h (CS, control stress, according to Ito et al., 2011).\nTotal DNA from seedlings and adult plants was isolated using a DNeasy Plant Mini Kit (QIAGEN).\nIn preparation to the measurement of extrachromosomal DNA copies of ONSEN in CS/HS and untreated/treated seedlings, roots were dissected directly after the heat stress and plants were immediately frozen in liquid nitrogen until DNA extraction.\nThe copy numbers of ONSEN were determined with qPCRs on total DNA using a TaqMan master mix (Life Technologies) in a final volume of 10 μl in the Light-Cycler 480 (Roche). ACTOPIA17 copy number was measured by quantitative PCR (qPCR) in a Light-Cycler 480 (Roche), using […] Master Mix. Actin2 (At3g18780) served as a standard gene for normalization."}, "ONSEN LTR": {"tested_on": "ONSEN LTR", "experiment": "DNA methylation analysis (DdeI chop PCR, bisulfite sequencing) at the ONSEN LTR", "type": "in vivo, Arabidopsis thaliana", "description": "20 ng of total genomic DNA isolated from Arabidopsis seedlings was digested with the methylation sensitive restriction enzyme, Dde1 (NEB) at 37° C. over night. Following heat inactivation at 60° C. for 20 min, the digested DNA was used as a template for the chopPCR. Actin2 served as a control for the digest. Undigested DNA was used as a loading control. PCR products were separated on a 1% agarose gel and stained with Midori Green."}, "[1]": {"tested_on": "A549 human cancer cell line", "experiment": "Global DNA methylation (5-mC DNA ELISA) in A549 cells", "type": "cell-based", "conditions": "A 0.5 μg/ml, Z 350 μM", "description": "as §1"}}, "note": "“Also recorded” adds a separate entry of the source."}
{"smiles": "O=c1ncccn1[C@@H]1O[C@H](CO)[C@@H](O)[C@H]1O", "note": "[Z, zebularine]", "values": [{"measurement": "reduction of DNA methylation at LINE-1", "setting": "LINE-1 retrotransposon", "value": 20, "unit": "%"}]}
{"smiles": "CC[C@H](C)[C@@H]1NC(=O)CNC(=O)[C@@H]2Cc3c([nH]c4cc(O)ccc34)[S+]([O-])C[C@@H](NC(=O)CNC1=O)C(=O)N[C@@H](CC(N)=O)C(=O)N1C[C@H](O)C[C@H]1C(=O)N[C@@H]([C@@H](C)[C@@H](O)CO)C(=O)N2", "note": "(stereo partly drawn) [A, alpha-amanitin]", "values": [{"measurement": "ONSEN copy number at different α-amanitin concentrations", "setting": "ONSEN retrotransposon; Col wildtype seedlings, α-amanitin in different concentrations in μg/ml", "value": "dose dependent accumulation"}, {"measurement": "ONSEN ecDNA accumulation in dcl2/3/4 triple mutant", "setting": "ONSEN retrotransposon; dcl2/3/4 triple-mutant grown on A", "value": "no effect"}, {"measurement": "ONSEN ecDNA accumulation in rdr6 mutant", "setting": "ONSEN retrotransposon; rdr6 plants grown on A", "value": "still enhancing ecDNA accumulation"}, {"measurement": "ONSEN ecDNA accumulation after heat stress", "setting": "ONSEN retrotransposon; wild-type seedlings, A 5 μg/ml, Z 40 μM", "value": "increase in ONSEN ecDNA"}, {"measurement": "DNA methylation at the ONSEN LTR at higher A concentration", "setting": "ONSEN LTR; WT (Col) seedlings, A 20 μg/ml, Z 10 μM", "value": "reduction in DNA-methylation; also recorded: strongly reduced DNA methylation"}, {"measurement": "CHH methylation at the ONSEN LTR", "setting": "ONSEN LTR; after CS, A 5 μg/ml, Z 40 μM", "value": "reduced CHH methylation levels"}, {"measurement": "reduction of DNA methylation at LINE-1", "setting": "LINE-1 retrotransposon", "value": 40, "unit": "%"}, {"measurement": "reduction of global DNA methylation", "setting": "[1]", "value": 40, "unit": "%"}]}
